Structures are written as SMILES.

A short description of one series: in vitro. The following applies: human, hela cells, % viability.
What is called viability is a read-out of living cells in per cent, often relative to untreated cells. On to `NC(=O)NCc1ccc(F)cc1` [CBK019769], for which the viability at 28.5 h, 10 µM turned out to be 110%. The same measure, in the same setting: in the case of `O=[N+]([O-])c1cc(-c2nc(-c3ccco3)c(-c3ccco3)[nH]2)ccc1Br` [CBK019778] it was 86.3%; in that of `CO/N=C(N)/C(N)=N/OC` [CBK019780], 98.4%.

As to `Cc1ccc(CSc2cnc(C(C)(C)C)nc2)cc1` [CBK019832], the viability at 28.5 h, 10 µM was 112%. The same measure, in the same setting: with `O=C1NC(=O)c2c(NC(=O)C3CCCCC3)cccc21` [CBK019837] the figure was 88.3%; with `N/C(=N\O)c1ccc(OC(F)(F)F)cc1` [CBK019865], 97.2%; with `COc1nc(N)nc(C/C(=N\NC(=O)c2cccnc2)C2CC2)n1` [CBK019872], 90.9%.

Take `COc1ccc(-c2sc(C(=O)O)c(C)c2C#N)cc1` [CBK019922]: the viability at 28.5 h, 10 µM was 101%. The same measure, in the same setting: in the case of `O=S1(=O)N=C(c2c(O)nc3ccccc3c2O)Nc2ccccc21` [CBK019929] it was 90.7%; in that of `CCSc1nc(SCC)c2c3c([nH]c2n1)CCCC3` [CBK019936], 94.6%.

Turning to `CC(C)(C)c1cc2cc(NC(=O)C3CC3)ccc2[nH]1` [CBK019994], the viability at 28.5 h, 10 µM was 115%.

For `Nc1nnc(Sc2nccc(C(F)(F)F)n2)s1` [CBK020023], the viability at 28.5 h, 10 µM was 99.5%. Same read-out and setting: with `CNC(=S)NCc1ccncc1` [CBK020033] the figure was 106%; with `CCOC(=O)NC(=S)NC(=O)C(C)(C)C` [CBK020037], 100%. For `FC(F)(F)c1nnc2ccc(-n3ccnc3)nn12` [CBK020041], the viability at 28.5 h, 10 µM is 96.1%. On to `O=S(=O)(c1ccccc1)C1C2C=CC(COC3CCCCO3)(O2)C1S(=O)(=O)c1ccccc1` (stereo not drawn) [CBK020045], for which the viability at 28.5 h, 10 µM came to 92.6%. Consider `CCOC(=O)c1c2c([nH]c(=S)c1C#N)CCCC2` [CBK020049], for which the viability at 28.5 h, 10 µM was 97.6%. Same read-out and setting: in the case of `CCN(CC)c1ccc(/C=N/NC(=O)CC2=NNC(=O)C2)cc1` [CBK020059] it was 91.8%.

For the compound `O=C(Cn1cncn1)c1ccc2c(c1)CCO2` [CBK020087], the viability at 28.5 h, 10 µM was 93.5%. `CC1CC(=O)C2=C(C1)NN=C(c1cccc(C(F)(F)F)c1)C2` (stereo not drawn) [CBK020138]: the viability at 28.5 h, 10 µM came out at 86.9%.

In the case of `CN(C)CCN(Cc1ccccn1)c1ncccn1` [CBK020142], the viability at 28.5 h, 10 µM stood at 116%. On the same count and under the same terms, with `CCCCc1c(Cl)nc(C#N)c2c1CCCC2` [CBK020252] the figure was 98.9%. On to `O=S1(=O)N=c2cc3c(c4cccc1c24)=Nc1ccccc1N3` [CBK020253], for which the viability at 28.5 h, 10 µM was 89.9%. As for `CN1CCN(CCP(=O)(c2ccccc2)c2ccccc2)CC1` [CBK020260], the viability at 28.5 h, 10 µM turned out to be 94.1%.

With `CC1CC(/N=C2/NCCS2)CC(C)(C)C1` (stereo not drawn) [CBK020293], the viability at 28.5 h, 10 µM turned out to be 102%. Same read-out and setting: in the case of `CCCc1onc(S(=O)(=O)c2ccc(C)cc2)c1NC` [CBK020322] it was 84.3%; in that of `CC(=O)C(C)Oc1ccccc1-n1cccc1` (stereo not drawn) [CBK020334], 95.9%. For the compound `O=C(O)CCn1oc(=O)c2ccccc21` [CBK020340], the viability at 28.5 h, 10 µM came out at 89.8%. The same measure, in the same setting: in the case of `O=C1C=C(OCc2ccccc2)CN1` [CBK020360] it was 94.4%. For `CC1(C)CN(c2ccc(S(N)(=O)=O)cc2)C1=O` [CBK020416], the viability at 28.5 h, 10 µM stood at 90.6%. Still for that read-out and setting: in the case of `CCCCc1nccn1CCn1ccnc1CCCC` [CBK020437] it was 88.7%; in that of `c1csc(-c2cnc3ccccc3n2)c1` [CBK020525], 93.2%. Still for that read-out and setting: in the case of `O=C(NCCc1nc2ccccc2[nH]1)c1cccs1` [CBK020529] it was 99.4%; in that of `COc1ccc(OC)c(/N=C2\CC(=O)CC(C)(C)C2)c1` [CBK020541], 106%; in that of `O=C(O)CNCCC(=O)c1ccc([N+](=O)[O-])cc1` [CBK020544], 87%. Same read-out and setting: in the case of `CCOC(=O)c1ncoc1-c1ccc(Cl)cc1Cl` [CBK020578] it was 90.2%; in that of `CC(=O)Cn1nnnc1C` [CBK020588], 99.6%; in that of `CC(C)CS(=O)(=O)Nc1ccc(F)cc1F` [CBK020615], 91.9%. Turning to `OCCSCc1ccc2nonc2c1` [CBK020617], the viability at 28.5 h, 10 µM was determined as 107%. Consider `CN(C)C(c1ccc2c(c1)OCO2)c1nnnn1C1CCCCC1` (stereo not drawn) [CBK020620], for which the viability at 28.5 h, 10 µM came to 103%.

As for `O=C1CSC(c2cccc(Cl)c2Cl)N1C1CCCCC1` (stereo not drawn) [CBK020678], the viability at 28.5 h, 10 µM was determined as 96.7%. Same read-out and setting: with `O=C(Nc1ccc2[nH]c(C3CCCCC3)nc2c1)C1CCCCC1` [CBK020680] the figure was 87.7%; with `CC(C)(C)SCCNC(=S)NCCO` [CBK020686], 98.7%. For the compound `CSc1cc(C)c(O)c(CO)c1` [CBK020687], the viability at 28.5 h, 10 µM turned out to be 85.7%. As to `CCc1c(C)nc2nnc(NC(=O)C(F)(F)F)n2c1O` [CBK020762], the viability at 28.5 h, 10 µM is 102%. As to `COc1nc(OC)nc(OC2=CC(=O)CC(C)(C)C2)n1` [CBK020772], the viability at 28.5 h, 10 µM stood at 95.5%. Turning to `CC1=C(CCN2CCCC(CO)C2)C(C)(C)CCC1` (stereo not drawn) [CBK020827], the viability at 28.5 h, 10 µM worked out at 88.2%.

Consider `CC(C)(C)NCC(O)COc1c(F)cc(Br)cc1F` (stereo not drawn) [CBK020879C], for which the viability at 28.5 h, 10 µM is 107%. Same read-out and setting: in the case of `CCOC(=O)c1sc(C)c(C(N)=O)c1/N=C1\CCCN1` [CBK020893] it was 105%; in that of `CCCC(SCC)C(N)=O` (stereo not drawn) [CBK020895], 99.1%; in that of `COC(=O)c1cc(Cl)c(NC(=S)NC(=O)C(C)(C)C)cc1OC` [CBK020937], 94.1%.

Consider `CCOC(=O)c1sc2ccc(NC(C)=O)cc2c1C` [CBK021052], for which the viability at 28.5 h, 10 µM came to 76.8%. On the same count and under the same terms, with `COc1ccc(C2NCCS2)cc1Br` (stereo not drawn) [CBK021053] the figure was 104%; with `COc1ccc(CCOC(=O)Nc2cn(C)nc2C(F)(F)F)cc1OC` [CBK021070], 105%. Regarding `IC1COC(c2ccccc2)OC1` (stereo not drawn) [CBK021109], the viability at 28.5 h, 10 µM was 110%.

On to `CN1CCC(N(C2CC2)S(=O)(=O)c2ccc(NC(=O)C(C)(C)C)cc2)CC1` [CBK021115], for which the viability at 28.5 h, 10 µM is 99%. On the same count and under the same terms, with `Cc1oc(-c2cccs2)cc1C(=O)O` [CBK021183] the figure was 93.5%. As to `Cc1ccc(COCSc2nc3ccccc3n2CC(O)CO)cc1C` (stereo not drawn) [CBK021195], the viability at 28.5 h, 10 µM amounted to 85.1%. The same measure, in the same setting: with `CC(=O)c1cc2c(N)c(/C(N)=N/C#N)sc2nc1C` [CBK021202] the figure was 70.7%; with `Brc1csc(CNc2ccc3cn[nH]c3c2)c1` [CBK021216], 75.1%.

Turning to `Cc1ccc(CCn2cc(C)nc2C)cn1` [CBK021231], the viability at 28.5 h, 10 µM turned out to be 106%. For the compound `COc1ccc2cc3c(nc2c1)Sc1nncn1N=C3` [CBK021248], the viability at 28.5 h, 10 µM came to 100%. Regarding `CNC(=S)N/N=C/c1c(C)cccc1Cl` [CBK021253], the viability at 28.5 h, 10 µM was 84.6%. With `C/C(=N\c1ccccc1C(F)(F)F)c1ccncc1` [CBK021262], the viability at 28.5 h, 10 µM is 86.6%. Take `O=C(Nc1ccccn1)NC1CCS(=O)(=O)C1` (stereo not drawn) [CBK021330]: the viability at 28.5 h, 10 µM was 99.9%.

`CCOC(=O)c1c(C#N)c(SCc2ccc(Cl)cc2)nc2c1CN(CC)CC2` [CBK021337]: the viability at 28.5 h, 10 µM came to 90.9%. For `Nc1nnc2c(C(F)(F)F)nc3ccccc3n12` [CBK021345], the viability at 28.5 h, 10 µM came to 82.1%. The same measure, in the same setting: with `COC(=O)c1ccc(Cl)cc1N(Cc1c(F)cccc1Cl)S(C)(=O)=O` [CBK021351] the figure was 85.3%. `Cc1ccc(CCn2nc(C)cc2C)cn1` [CBK021375]: the viability at 28.5 h, 10 µM is 104%. Still for that read-out and setting: in the case of `CCOC(=O)C1=NN(C)c2cnn(Cc3ccc(Cl)cc3)c(=O)c2C1C(=O)CC(C)C` (stereo not drawn) [CBK021389] it was 91.9%.

On to `COc1ccccc1N1C(=O)[C@H]2N=C(C(=O)c3cnccn3)N[C@H]2C1=O` [CBK021406], for which the viability at 28.5 h, 10 µM is 90.3%.

Consider `COC(=O)c1cn(C(=O)c2snnc2C)nc1C(C)(C)C` [CBK021420], for which the viability at 28.5 h, 10 µM came to 89.2%. `CCOC(=O)C(NC(=O)N(C1=NCC(C)S1)C1CCCCC1)(OC)C(F)(F)F` (stereo not drawn) [CBK021431]: the viability at 28.5 h, 10 µM is 96.8%. Still for that read-out and setting: in the case of `CCCCSc1cc(C)nc2ncnn12` [CBK021443] it was 105%; in that of `COc1ccc(Cc2nc(C(C)(C)C)cs2)cc1` [CBK021497B], 85%. The same measure, in the same setting: in the case of `CCOC(=O)C1=C(C)Nc2nc(C)nc(Cl)c2O1` [CBK021504] it was 103%; in that of `CC(C)(C)c1csc(Nc2ncc(C(F)(F)F)cc2Cl)n1` [CBK021513], 77.5%. In the case of `N=C(N)NC(=N)Nc1ccc2c(c1)OCCO2` [CBK021572C], the viability at 28.5 h, 10 µM was 84.3%. Same read-out and setting: in the case of `c1ccc(NCc2ncnc3c2ncn3C2CCCCO2)cc1` (stereo not drawn) [CBK021593] it was 100%. As for `CC(C)(C)NC(=O)NCC(c1ccc[nH]1)C(F)(F)F` (stereo not drawn) [CBK021595], the viability at 28.5 h, 10 µM was 92.3%. On to `Nc1nc(Cl)cc(Sc2ccc3ccccc3c2)n1` [CBK021630], for which the viability at 28.5 h, 10 µM was found to be 97.4%.

In the case of `CCc1c(C)sc(NC(=O)c2ccc(Br)o2)c1C#N` [CBK021662], the viability at 28.5 h, 10 µM was found to be 83.6%.

Turning to `CNCCC(Sc1ccccn1)c1ccccc1` (stereo not drawn) [CBK021724C], the viability at 28.5 h, 10 µM came out at 93.5%. As for `CCOC(=O)Cc1nnc(-c2ccc(Cl)cc2)[nH]1` [CBK021882], the viability at 28.5 h, 10 µM was found to be 89.1%. On to `O=C(CCS(=O)(=O)c1ccc(Br)cc1)OCC(=O)c1ccccc1` [CBK021886], for which the viability at 28.5 h, 10 µM is 104%.

For the compound `FC(F)(F)c1ccncc1-n1cccc1` [CBK021909], the viability at 28.5 h, 10 µM came out at 85.9%.

For the compound `O=C(O)COCCn1cc(-c2ccc(Cl)cc2)cn1` [CBK021914], the viability at 28.5 h, 10 µM was 84.5%. Still for that read-out and setting: in the case of `CC(C)(C)c1csc(N2CCSCC2)n1` [CBK021950] it was 119%.

Staying with this series, now noted: human, hela cells, % viability, bulk resorufin, single well.
Regarding `O=C1OC(c2c(O)nc(=O)[nH]c2O)c2ccccc21` (stereo not drawn) [CBK019775], the viability at 28.5 h, 10 µM is 113%. Regarding `CCOC(=O)C1(c2ccccc2)CCN(CC(=O)Nc2ccc(C(=O)OC)cc2)CC1` [CBK020942], the viability at 28.5 h, 10 µM stood at 92.9%.

Values taken from PMC12040169 (PLOS Biology, 2025).
